The values that follow are results of earlier work, collected in patent US20140178367A1, “Methods of Treating Inflammatory Diseases by Targeting the Chemoattractant Cytokine Receptor 2 (CCR2) or Chemokine (C-C motif) Ligand 2 (CCL2)” (THE Brigham and Women's Hospital, Inc., priority 2011, published 2014).

This data set has as its system patients with ALS.

For the compound `Nc1nc2ccc(OC(F)(F)F)cc2s1` [riluzole], the prolongs life result was “only a few months”.
